Values quoted from earlier work, collected in patent publication US20240237652A1, “Biocidal Composition and Method” (ARXADA, LLC, priority 2021, published 2024).

Key:
[1] = system: bacteria, fungi, and yeast
[2] = neutral pH

Row | Compound | amount required for a reliable and quick biocidal activity [1] [ppm] | solubility in water [2] [ppm]
1 | O=c1[nH]sc2ccccc12 [BIT, 1,2-benzisothiazolin-3-one] | ≤ 500 | 
2 | Zinc pyrithione [ZPT] |  | 8
